Laboratory results: patent US10934310B2, “Inhibitors of Bruton's tyrosine kinase and method of their use” (JANSSEN PHARMACEUTICA NV, priority 2015, dated 2021)

target: unphosphorylated-BTK kinase domain (UP-BTK), GST-tagged human BTK (389-659aa) (Homo sapiens (Human), UniProt Q06187); assay: BTK Kinase Lanthascreen Binding Assay; details: compound, 50 nM Tracer 236, 2 nM anti-GST antibody, 60 minutes; pIC50 = negative log of the IC50 in molar
Experimental: BTK Kinase Lanthascreen Binding Assay:
A BTK kinase lanthascreen binding assay monitors compound binding to unphosphorylated-BTK kinase domain (UP-BTK), by competing with a fluorescent labeled tracer. […] Data were analyzed using Xlfit™ version 5.3 from ID Business Solutions (Guildford), Microsoft Excel add-in. pIC50 refers to the negative log of the IC50 in molar.

Chain of unphosphorylated-BTK kinase domain (UP-BTK), GST-tagged human BTK (389-659aa) (Q06187 389-659): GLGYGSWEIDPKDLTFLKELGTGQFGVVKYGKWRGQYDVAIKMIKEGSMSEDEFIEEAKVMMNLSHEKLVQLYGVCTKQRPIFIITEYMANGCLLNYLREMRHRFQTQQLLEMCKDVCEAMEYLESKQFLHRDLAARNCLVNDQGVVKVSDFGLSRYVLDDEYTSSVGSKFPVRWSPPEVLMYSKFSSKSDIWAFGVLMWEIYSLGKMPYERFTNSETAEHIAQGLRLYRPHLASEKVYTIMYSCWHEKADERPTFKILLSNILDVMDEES

Row | SMILES | BTK_I_binding pIC50
1 | CNCC(=O)N[C@H]1CCC[C@@H]1NC(=O)c1sc2nccc3c2c1NC(=O)N3c1ccc(Oc2ccccc2)cc1C (single isomer, unassigned) [Example 133, 5-(*S)-(2-Methyl-4-phenoxyphenyl)-N-((1S,2S)-2-(2-(methylamino)acetamido)cyclopentyl)-4-oxo-4,5-dihydro-3H-1-thia-3,5,8-triazaacenaphthylene-2-carboxamide] | 7.13
2 | CC(=O)N[C@H]1CCC[C@@H]1NC(=O)c1sc2nccc3c2c1NC(=O)N3c1ccc(Oc2ccccc2)cc1C (single isomer, unassigned) [Example 134, N-((1S,2S)-2-Acetamidocyclopentyl)-5-(*S)-(2-methyl-4-phenoxyphenyl)-4-oxo-4,5-dihydro-3H-1-thia-3,5,8-triazaacenaphthylene-2-carboxamide] | 6.76
3 | Cc1cc(Oc2ccccc2)ccc1N1C(=O)Nc2c(C(=O)N[C@H]3CCC[C@@H]3N)sc3nccc1c23 (single isomer, unassigned) [Example 135, N-((1S,2S)-2-Aminocyclopentyl)-5-(*S)-(2-methyl-4-phenoxyphenyl)-4-oxo-4,5-dihydro-3H-1-thia-3,5,8-triazaacenaphthylene-2-carboxamide] | 6.82
4 | CC(=O)N[C@H]1CCCC[C@H]1NC(=O)c1sc2nccc3c2c1NC(=O)N3c1ccc(Oc2ccccc2)cc1C (single isomer, unassigned) [Example 136, N-((1R,2S)-2-Acetamidocyclohexyl)-5-(*S)-(2-methyl-4-phenoxyphenyl)-4-oxo-4,5-dihydro-3H-1-thia-3,5,8-triazaacenaphthylene-2-carboxamide] | 7.52
5 | CC(=O)N[C@H]1CCC[C@H]1NC(=O)c1sc2nccc3c2c1NC(=O)N3c1ccc(Oc2ccccc2)cc1C (single isomer, unassigned) [Example 138, N-((1R,2S)-2-Acetamidocyclopentyl)-5-(*S)-(2-methyl-4-phenoxyphenyl)-4-oxo-4,5-dihydro-3H-1-thia-3,5,8-triazaacenaphthylene-2-carboxamide] | 7.49
6 | Cc1cc(Oc2ccccc2)ccc1N1C(=O)Nc2c(C(=O)N[C@H]3CCC[C@H]3NC(=O)CN)sc3nccc1c23 (single isomer, unassigned) [Example 154, N-((1S,2R)-2-(2-Aminoacetamido)cyclopentyl)-5-(*S)-(2-methyl-4-phenoxyphenyl)-4-oxo-4,5-dihydro-3H-1-thia-3,5,8-triazaacenaphthylene-2-carboxamide] | 6.36
7 | Cc1cc(Oc2ccccc2)ccc1N1C(=O)Nc2c(C(=O)N[C@H]3CCC[C@H]3NC(=O)CN(C)C)sc3nccc1c23 (single isomer, unassigned) [Example 155, N-((1S,2R)-2-(2-(Dimethylamino)acetamido)cyclopentyl)-5-(*S)-(2-methyl-4-phenoxyphenyl)-4-oxo-4,5-dihydro-3H-1-thia-3,5,8-triazaacenaphthylene-2-carboxamide] | 6.35
8 | CNCC(=O)N[C@@H]1CCC[C@@H]1NC(=O)c1sc2nccc3c2c1NC(=O)N3c1ccc(Oc2ccccc2)cc1C (single isomer, unassigned) [Example 156, 5-(*S)-(2-Methyl-4-phenoxyphenyl)-N-((1S,2R)-2-(2-(methylamino)acetamido)cyclopentyl)-4-oxo-4,5-dihydro-3H-1-thia-3,5,8-triazaacenaphthylene-2-carboxamide] | 6.26
9 | C=CC(=O)N[C@H]1CCC[C@H]1NC(=O)c1sc2nccc3c2c1NC(=O)N3c1ccc(OC(C)C)cc1C (single isomer, unassigned) [Example 165, N-((1R,2S)-2-Acrylamidocyclopentyl)-5-(*R)-(4-isopropoxy-2-methylphenyl)-4-oxo-4,5-dihydro-3H-1-thia-3,5,8-triazaacenaphthylene-2-carboxamide] | 8.30
10 | C=CC(=O)N[C@H]1CCC[C@H]1NC(=O)c1sc2nccc3c2c1NC(=O)N3c1cnc(Oc2ccccc2)nc1C (single isomer, unassigned) [Example 166, N-((1R,2S)-2-Acrylamidocyclopentyl)-5-(*S)-(4-methyl-2-phenoxypyrimidin-5-yl)-4-oxo-4,5-dihydro-3H-1-thia-3,5,8-triazaacenaphthylene-2-carboxamide] | 8.13
11 | Cc1cc(Oc2ccccc2)ncc1N1C(=O)Nc2c(C(=O)N[C@@H]3CCC[C@@H]3N)sc3nccc1c23 (single isomer, unassigned) [Example 170, N-((1R,2S)-2-Aminocyclopentyl)-5-(*S)-(4-methyl-6-phenoxypyridin-3-yl)-4-oxo-4,5-dihydro-3H-1-thia-3,5,8-triazaacenaphthylene-2-carboxamide] | 7.02
12 | C=CC(=O)N[C@H]1CCC[C@H]1NC(=O)c1sc2nccc3c2c1NC(=O)N3c1cnc(Oc2ccccc2)cc1C (single isomer, unassigned) [Example 171, N-((1R,2S)-2-Acrylamidocyclopentyl)-5-(*S)-(4-methyl-6-phenoxypyridin-3-yl)-4-oxo-4,5-dihydro-3H-1-thia-3,5,8-triazaacenaphthylene-2-carboxamide] | 8.19
13 | C=CC(=O)N[C@H]1CCCC[C@H]1NC(=O)c1sc2nccc3c2c1NC(=O)N3c1cnc(Oc2ccccc2)cc1C (single isomer, unassigned) [Example 173, N-((1R,2S)-2-Acrylamidocyclohexyl)-5-(*S)-(4-methyl-6-phenoxypyridin-3-yl)-4-oxo-4,5-dihydro-3H-1-thia-3,5,8-triazaacenaphthylene-2-carboxamide] | 8.02
14 | C=CC(=O)N[C@H]1CCCC[C@H]1NC(=O)c1sc2nccc3c2c1NC(=O)N3c1ccc(OC(C)C)cc1C (single isomer, unassigned) [Example 174, N-((1R,2S)-2-Acrylamidocyclohexyl)-5-(*R)-(4-isopropoxy-2-methylphenyl)-4-oxo-4,5-dihydro-3H-1-thia-3,5,8-triazaacenaphthylene-2-carboxamide] | 8.28
15 | C=CC(=O)N[C@@H]1CC[C@@H](NC(=O)c2sc3nccc4c3c2NC(=O)N4c2ccc(Oc3ccccc3)cc2C)C1 (single isomer, unassigned) [Example 175, N-((1R,3R)-3-Acrylamidocyclopentyl)-5-(*S)-(2-methyl-4-phenoxyphenyl)-4-oxo-4,5-dihydro-3H-1-thia-3,5,8-triazaacenaphthylene-2-carboxamide] | 8.05
16 | C=CC(=O)N[C@@H]1CCC[C@H](NC(=O)c2sc3nccc4c3c2NC(=O)N4c2ccc(Oc3ccccc3)cc2C)C1 (single isomer, unassigned) [Example 176, N-((1S,3R)-3-Acrylamidocyclohexyl)-5-(*S)-(2-methyl-4-phenoxyphenyl)-4-oxo-4,5-dihydro-3H-1-thia-3,5,8-triazaacenaphthylene-2-carboxamide] | 7.78
17 | CC(=O)N[C@@H]1CCC[C@H](NC(=O)c2sc3nccc4c3c2NC(=O)N4c2ccc(Oc3ccccc3)cc2C)C1 (single isomer, unassigned) [Example 180, N-((1S,3R)-3-Acetamidocyclohexyl)-5-(*S)-(2-methyl-4-phenoxyphenyl)-4-oxo-4,5-dihydro-3H-1-thia-3,5,8-triazaacenaphthylene-2-carboxamide] | 7.94
18 | Cc1cc(Oc2ccccc2)ccc1N1C(=O)Nc2c(C(=O)N[C@@H]3CCC[C@@H](N)C3)sc3nccc1c23 (single isomer, unassigned) [Example 181] | 7.33
19 | C=CC(=O)N[C@@H]1CCC[C@@H](NC(=O)c2sc3nccc4c3c2NC(=O)N4c2ccc(Oc3ccccc3)cc2C)C1 (single isomer, unassigned) [Example 182, N-((1R,3R)-3-Acrylamidocyclohexyl)-5-(*S)-(2-methyl-4-phenoxyphenyl)-4-oxo-4,5-dihydro-3H-1-thia-3,5,8-triazaacenaphthylene-2-carboxamide] | 7.66
20 | C=CC(=O)N[C@@H]1CC[C@H](NC(=O)c2sc3nccc4c3c2NC(=O)N4c2ccc(OC(C)C)cc2C)C1 (single isomer, unassigned) [Example 186, N-((1S,3R)-3-Acrylamidocyclopentyl)-5-(*R)-(4-isopropoxy-2-methylphenyl)-4-oxo-4,5-dihydro-3H-1-thia-3,5,8-triazaacenaphthylene-2-carboxamide] | 7.62
21 | C=CC(=O)N[C@@H]1CCC[C@H](NC(=O)c2sc3nccc4c3c2NC(=O)N4c2ccc(OC(C)C)cc2C)C1 (single isomer, unassigned) [Example 190, N-((1S,3R)-3-Acrylamidocyclohexyl)-5-(*R)-(4-isopropoxy-2-methylphenyl)-4-oxo-4,5-dihydro-3H-1-thia-3,5,8-triazaacenaphthylene-2-carboxamide] | 7.10
22 | CC(=O)N[C@@H]1CCC[C@@H](NC(=O)c2sc3nccc4c3c2NC(=O)N4c2ccc(Oc3ccccc3)cc2C)C1 (single isomer, unassigned) [Example 195, N-((1R,3R)-3-Acetamidocyclohexyl)-5-(*S)-(2-methyl-4-phenoxyphenyl)-4-oxo-4,5-dihydro-3H-1-thia-3,5,8-triazaacenaphthylene-2-carboxamide] | 7.55
23 | C=CC(=O)N[C@H]1CC[C@@H](NC(=O)c2sc3nccc4c3c2NC(=O)N4c2ccc(Oc3ccccc3)cc2C)C1 (single isomer, unassigned) [Example 196, N-((1R,3S)-3-Acrylamidocyclopentyl)-5-(*S)-(2-methyl-4-phenoxyphenyl)-4-oxo-4,5-dihydro-3H-1-thia-3,5,8-triazaacenaphthylene-2-carboxamide] | 7.12

same assay, conditions: read-out: BTK_I_binding pIC50 (converted)

Row | SMILES | IC50 [nM]
24 | CC(=O)N[C@@H]1CCC[C@@H]1NC(=O)c1sc2nccc3c2c1NC(=O)N3c1ccc(Oc2ccccc2)cc1C (single isomer, unassigned) [Example 162, N-((1S,2R)-2-Acetamidocyclopentyl)-5-(*S)-(2-methyl-4-phenoxyphenyl)-4-oxo-4,5-dihydro-3H-1-thia-3,5,8-triazaacenaphthylene-2-carboxamide] | > 1000
